The source of these data is US8741931B2, “Kinase inhibitors” (priority 2007, dated 2014).

What all share (format): biochemical
The target in test [1] is PKC theta kinase (Homo sapiens, UniProt Q04759). The test is described as follows: PKC Theta I (coupled enzyme assay, absorbance at 340 nm). To be noted: 240 μM ATP, 18 nM PKC theta, absorbance read out. Here is the method: An assay buffer solution was prepared which consisted of 100 mM HEPES (pH 7.5), 10 mM MgCl2, 25 mM NaCl, 0.1 mM EDTA and 0.01% Brij. […] To 60 μL of this enzyme buffer, in a 384 well plate, was added 2 μL of VRT stock solution in DMSO. The mixture was allowed to equilibrate for 10 mins at 30° C. […] Ki values were calculated from initial rate data by non-linear regression using the Prism software package (Prism 4.0a, Graphpad Software, San Diego, Calif.).

The target of test [2] is PKC delta kinase (Homo sapiens, UniProt Q05655). The test is described as follows: PKC Delta (coupled enzyme assay). The following applies: 150 μM ATP, 46 nM PKC delta; read-out: Ki PKC delta. Here is the method: An assay buffer solution was prepared which consisted of 100 mM HEPES (pH 7.5), 10 mM MgCl2, 25 mM NaCl, 0.1 mM EDTA and 0.01% Brij. […] To 16 μL of this enzyme buffer, in a 384 well plate, was added 1 μL of VRT stock solution in DMSO. The mixture was allowed to equilibrate for 10 mins at 30° C. […] Ki values were calculated from initial rate data by non-linear regression using the Prism software package (Prism 4.0a, Graphpad Software, San Diego, Calif.).

The target of test [3] is PKC alpha kinase (Homo sapiens, UniProt P17252). The test is described as follows: PKC Alpha (coupled enzyme assay). The following applies: 130 μM ATP, 4.5 nM PKC alpha. As for the experimental part:
An assay buffer solution was prepared which consisted of 100 mM HEPES (pH 7.5), 10 mM MgCl2, 25 mM NaCl, 0.1 mM EDTA, 100 μM CaCl2 and 0.01% Brij. […] To 16 μL of this enzyme buffer, in a 384 well plate, was added 1 μL of VRT stock solution in DMSO. The mixture was allowed to equilibrate for 10 mins at 30° C. […] Ki values were calculated from initial rate data by non-linear regression using the Prism software package (Prism 4.0a, Graphpad Software, San Diego, Calif.).

PKC theta kinase, sequence (Q04759 whole entry): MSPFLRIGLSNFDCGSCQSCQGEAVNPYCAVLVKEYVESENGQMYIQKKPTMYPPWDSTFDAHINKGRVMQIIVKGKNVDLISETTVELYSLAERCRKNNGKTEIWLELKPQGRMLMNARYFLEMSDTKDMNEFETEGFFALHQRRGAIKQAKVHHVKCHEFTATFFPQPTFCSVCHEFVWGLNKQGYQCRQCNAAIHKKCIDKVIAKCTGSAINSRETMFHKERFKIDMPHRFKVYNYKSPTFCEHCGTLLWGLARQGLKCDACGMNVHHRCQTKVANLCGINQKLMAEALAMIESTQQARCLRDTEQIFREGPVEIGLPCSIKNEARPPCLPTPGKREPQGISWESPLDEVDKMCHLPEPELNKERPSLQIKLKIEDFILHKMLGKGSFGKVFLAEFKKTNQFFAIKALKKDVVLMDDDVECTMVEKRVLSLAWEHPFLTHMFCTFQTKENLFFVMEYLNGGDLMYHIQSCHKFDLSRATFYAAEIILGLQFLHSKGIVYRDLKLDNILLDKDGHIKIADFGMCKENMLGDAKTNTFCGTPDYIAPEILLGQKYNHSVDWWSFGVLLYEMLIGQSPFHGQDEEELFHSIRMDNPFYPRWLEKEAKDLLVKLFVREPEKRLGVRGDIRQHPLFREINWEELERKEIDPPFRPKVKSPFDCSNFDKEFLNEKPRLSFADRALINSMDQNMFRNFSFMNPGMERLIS
PKC delta kinase, sequence (Q05655 whole entry): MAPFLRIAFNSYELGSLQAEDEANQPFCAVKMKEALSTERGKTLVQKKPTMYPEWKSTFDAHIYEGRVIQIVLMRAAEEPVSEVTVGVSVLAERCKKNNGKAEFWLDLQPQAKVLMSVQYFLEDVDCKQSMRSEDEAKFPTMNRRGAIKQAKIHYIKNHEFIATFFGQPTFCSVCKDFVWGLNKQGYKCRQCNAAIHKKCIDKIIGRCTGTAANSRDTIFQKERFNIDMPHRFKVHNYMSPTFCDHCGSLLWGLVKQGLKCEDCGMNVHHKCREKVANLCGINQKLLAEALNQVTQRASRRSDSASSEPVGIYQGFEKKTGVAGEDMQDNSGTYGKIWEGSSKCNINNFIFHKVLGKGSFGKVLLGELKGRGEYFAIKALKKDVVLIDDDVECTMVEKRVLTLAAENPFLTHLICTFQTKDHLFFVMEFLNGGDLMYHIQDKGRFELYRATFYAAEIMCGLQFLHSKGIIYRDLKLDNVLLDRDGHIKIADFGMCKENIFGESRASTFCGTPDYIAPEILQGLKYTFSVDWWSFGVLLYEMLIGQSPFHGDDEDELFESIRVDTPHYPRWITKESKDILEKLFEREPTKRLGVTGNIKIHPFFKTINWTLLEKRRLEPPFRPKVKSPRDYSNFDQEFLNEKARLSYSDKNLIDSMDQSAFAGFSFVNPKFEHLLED

Regarding `Cc1ccc(CC(=O)N2CCCN(c3cccc(C(=O)c4cc(Br)cnc4N)n3)CC2)cc1` [compound 74], in test [1], the Ki lay within 500 to 2800 nM.
Still for that read-out and setting: the result for `Nc1ncccc1C(=O)c1cccc(N2CCCN(C(=O)Cc3cccc(O)c3)CC2)n1` [compound 77] reads 500 to 2800 nM.
The same measure, in the same setting: the result for `CC(C)(C)N1CCN(c2cccc(C(=O)c3cccnc3N)n2)CC1` [compound 88] reads 500 to 2800 nM.
Turning to `Nc1ncccc1C(=O)c1cccc(N2CCCN(C(=O)c3cccs3)CC2)n1` [compound 90], the results for the Ki in test [1] and in test [2] were 500 to 2800 nM and more than 2800 nM, respectively.
On to `Cc1ccoc1C(=O)N1CCCN(c2cccc(C(=O)c3cccnc3N)n2)CC1` [compound 91], for which the Ki in test [1] lay within 500 to 2800 nM.
Same read-out and setting: the value for `Nc1ncc(Br)cc1C(=O)c1cccc(N2CCCN(Cc3ccccc3)CC2)n1` [compound 99] was 500 to 2800 nM.
Still for that read-out and setting: the result for `CN1CCC(N2CCN(c3cccc(C(=O)c4cc(Br)cnc4N)n3)CC2)CC1` [compound 101] reads 500 to 2800 nM; that for `CC(C)(C)OC(=O)N1CCCN(c2nccc(C(=O)c3cccnc3N)n2)CC1` [compound 110], 500 to 2800 nM.
As for `Nc1ncc(Br)cc1C(=O)c1cccc(N2CCCN(CCc3ccccc3)CC2)n1` [compound 114], the Ki in test [1] was in the range of 500 to 2800 nM.
On to `CC(C)(C)OC(=O)NC1CCN(c2cccc(C(=O)c3cc(Br)cnc3N)n2)CC1` [compound 135], for which the Ki in test [1] lay within 500 to 2800 nM.
Compound `CN(C)C1CCN(c2cccc(C(=O)c3cccnc3N)n2)CC1` [compound 137] gave a Ki in test [1] of 500 to 2800 nM.
The compound `Cc1ccsc1CN1CCCN(c2cccc(C(=O)c3cc(Br)cnc3N)n2)CC1` [compound 139] returned a Ki in test [1] of 500 to 2800 nM.
`Nc1ncccc1C(=O)c1nc(NCCO)ccc1C(F)(F)F` [compound 423]: the results for the Ki in test [1], in test [2] and in test [3] were 500 to 2800 nM, more than 2800 nM and more than 2800 nM, respectively.
`CC(C)C[C@H]1CN(c2cc(C(=O)c3cccnc3N)c(-c3ccco3)cn2)CCN1` [compound 428]: the Ki in test [1] was 500 to 2800 nM; in test [2], more than 2800 nM; in test [3], more than 2800 nM.
For `CC(Nc1ccc(C(F)(F)F)c(C(=O)c2cccnc2N)n1)[C@@H](O)c1ccccc1` (stereo partly shown) [compound 430], the values for the Ki in test [1], in test [2] and in test [3] were 500 to 2800 nM, more than 2800 nM and more than 2800 nM, respectively.
Regarding `Nc1ncccc1C(=O)c1nc(OCC2(N)CCCC2)ccc1C(F)(F)F` [compound 438], the Ki is 500 to 2800 nM in test [1], 500 to 2800 nM in test [2] and more than 2800 nM in test [3].
`CC(C)[C@H]1CN(c2ccc(C(F)(F)F)c(C(=O)c3cccnc3N)n2)C[C@@H](c2ccccc2)N1` [compound 449]: the Ki is 500 to 2800 nM in test [1], more than 2800 nM in test [2] and more than 2800 nM in test [3].
Consider `CC(C)C1OC(=O)N2CCN(c3ccc(C(F)(F)F)c(C(=O)c4cccnc4N)n3)CC12` (stereo not shown) [compound 453], for which the Ki was 500 to 2800 nM in test [1], more than 2800 nM in test [2] and more than 2800 nM in test [3].
Regarding `CC(C)C[C@H]1CN(c2ccc(C#CC(C)(C)O)c(C(=O)c3cccnc3N)n2)CCN1` [compound 467], the results for the Ki in test [1], in test [2] and in test [3] were 500 to 2800 nM, more than 2800 nM and more than 2800 nM, respectively.
With `CC[C@@H]1CN(c2ccc(C(F)(F)F)c(C(=O)c3cccnc3N)n2)C[C@H](C(C)C)N1` [compound 472], the Ki in test [1] was 500 to 2800 nM; in test [2], more than 2800 nM; in test [3] it was more than 2800 nM.
As to `CCC[C@H]1CN(c2ccc(C(F)(F)F)c(C(=O)c3cccnc3N)n2)C[C@@H](c2ccccc2)N1` [compound 481], the Ki in test [1] was 500 to 2800 nM; in test [2] it was more than 2800 nM; in test [3], more than 2800 nM.
With `CC[C@H]1CN(c2ccc(C(F)(F)F)c(C(=O)c3cccnc3N)n2)C[C@H](CC(C)C)N1` [compound 489], the Ki in test [1] is 500 to 2800 nM; in test [2], 500 to 2800 nM; in test [3], more than 2800 nM.
Take `CCC[C@H]1CN(c2ccc(C(F)(F)F)c(C(=O)c3cccnc3N)n2)C[C@H](CC(C)C)N1` [compound 493]: the values for the Ki in test [1], in test [2] and in test [3] were 500 to 2800 nM, 500 to 2800 nM and more than 2800 nM, respectively.
